Test results reported in the NIST ThermoML archive (doi:10.1021/je020140j).

Assay: xn = mol fraction of the nth substance listed
Conditions: 101 kPa, Liquid

OCCO [1,2-ethanediol] + O
Conditions	mass density [kg/m3]	viscosity [mPa·s]
293.15 K, x1 = 0.0312	1011.7	1.337
293.15 K, x1 = 0.0676	1024.6	1.785
293.15 K, x1 = 0.1105	1037.2	2.272
293.15 K, x1 = 0.162	1051.3	2.951
293.15 K, x1 = 0.2248	1064.8	3.941
293.15 K, x1 = 0.3031	1076.7	5.102
293.15 K, x1 = 0.4036	1087.8	6.898
293.15 K, x1 = 0.537	1097.8	9.696
293.15 K, x1 = 0.723	1105.7	14.04
293.15 K, x1 = 1	1113.7	20.83
303.15 K, x1 = 0.0312	1006.1	1.047
303.15 K, x1 = 0.0676	1018.4	1.331
303.15 K, x1 = 0.1105	1030	1.694
303.15 K, x1 = 0.162	1043.4	2.2
303.15 K, x1 = 0.2248	1056.2	2.832
303.15 K, x1 = 0.3031	1067.5	3.728
303.15 K, x1 = 0.4036	1078	4.955
303.15 K, x1 = 0.537	1087	6.749
303.15 K, x1 = 0.723	–	9.399
303.15 K, x1 = 1	–	13.65
313.15 K, x1 = 0.0312	1001.3	0.835
313.15 K, x1 = 0.0676	1010.6	1.022
313.15 K, x1 = 0.1105	1021.9	1.319
313.15 K, x1 = 0.162	1034.7	1.677
313.15 K, x1 = 0.2248	1046.8	2.132
313.15 K, x1 = 0.3031	1057.9	2.756
313.15 K, x1 = 0.4036	1067.9	3.575
313.15 K, x1 = 0.537	1077.1	4.776
313.15 K, x1 = 0.723	1085.8	6.449
313.15 K, x1 = 1	1093.6	9.443
323.15 K, x1 = 0.0312	994.9	0.685
323.15 K, x1 = 0.0676	1005.1	0.868
323.15 K, x1 = 0.1105	1015.1	1.064
323.15 K, x1 = 0.162	1027.4	1.322
323.15 K, x1 = 0.2248	1038.6	1.657
323.15 K, x1 = 0.3031	1049.2	2.113
323.15 K, x1 = 0.4036	1059	2.709
323.15 K, x1 = 0.537	1068	3.593
323.15 K, x1 = 0.723	1076.7	4.837
323.15 K, x1 = 1	1084.7	6.992
333.15 K, x1 = 0.0312	989.8	0.576
333.15 K, x1 = 0.0676	997.9	0.713
333.15 K, x1 = 0.1105	1007.2	0.875
333.15 K, x1 = 0.162	1019.2	1.073
333.15 K, x1 = 0.2248	1030.3	1.312
333.15 K, x1 = 0.3031	1040.6	1.626
333.15 K, x1 = 0.4036	1050.3	2.053
333.15 K, x1 = 0.537	1059.2	2.684
333.15 K, x1 = 0.723	1068	3.51
333.15 K, x1 = 1	1076.4	5.06
343.15 K, x1 = 0.0312	983.7	0.498
343.15 K, x1 = 0.0676	991.5	0.597
343.15 K, x1 = 0.1105	1000.4	0.728
343.15 K, x1 = 0.162	1011.5	0.881
343.15 K, x1 = 0.2248	1022.3	1.071
343.15 K, x1 = 0.3031	1031.9	1.32
343.15 K, x1 = 0.4036	1041.3	1.648
343.15 K, x1 = 0.537	1050.1	2.136
343.15 K, x1 = 0.723	1058.8	2.817
343.15 K, x1 = 1	1067.5	3.987
353.15 K, x1 = 0.0312	977.1	0.434
353.15 K, x1 = 0.0676	984.7	0.525
353.15 K, x1 = 0.1105	993.6	0.629
353.15 K, x1 = 0.162	1003.8	0.758
353.15 K, x1 = 0.2248	1014	0.906
353.15 K, x1 = 0.3031	1023.7	1.1
353.15 K, x1 = 0.4036	1033	1.359
353.15 K, x1 = 0.537	1042	1.748
353.15 K, x1 = 0.723	1050.9	2.296
353.15 K, x1 = 1	1060	3.021
